Data as given in patent publication US20240270741A1 (Cogent Biosciences, Inc., priority 2023, published 2024).

The molecules below were run against FGFR2 (Homo sapiens, UniProt P21802) (assay: FGFR wild type enzyme assay (HTRF KinEASE-TK), FGFR2). Conditions: Enz FGFR2 (nM), FGFR2 wild type enzyme.
Chain of FGFR2 (P21802 399-821 limits assumed): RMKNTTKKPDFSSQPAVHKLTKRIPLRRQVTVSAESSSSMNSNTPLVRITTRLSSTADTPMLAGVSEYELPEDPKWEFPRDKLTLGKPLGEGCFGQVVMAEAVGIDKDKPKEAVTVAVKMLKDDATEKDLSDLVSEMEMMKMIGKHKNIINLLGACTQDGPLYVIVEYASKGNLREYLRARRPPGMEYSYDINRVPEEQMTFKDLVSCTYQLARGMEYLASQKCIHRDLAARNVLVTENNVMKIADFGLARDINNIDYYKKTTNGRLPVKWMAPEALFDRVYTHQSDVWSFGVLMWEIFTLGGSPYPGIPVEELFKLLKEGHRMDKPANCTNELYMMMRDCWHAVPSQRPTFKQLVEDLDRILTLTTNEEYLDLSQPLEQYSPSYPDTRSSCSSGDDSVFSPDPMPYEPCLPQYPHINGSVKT
Method: Activity against FGFR wild type and mutant enzymes were determined in biochemical assays using purified intracellular domains of the respective isoforms using HTRF KinEASE-TK assay technology from CisBio, now PerkinElmer. (Catalogue number 62TK0PEC). Briefly test compounds were tested in 11 point 1:3 serial dilutions, typical final concentration ranges from 10,000 nM to 0.17 nM. Test compounds were dissolved in DMSO and added to assay plates using acoustic transfer. Enzyme was pre-incubated with test compound for 30 minutes and the assay was initiated by addition of ATP and TK-peptide substrate. After 60 minutes at room temperature the reaction was quenched with detection reagent and incubated for an additional 60 minutes at room temperature. The plates were read using a multimode reader and the emission ratio of 665 nm to 615 nm was determined. This ratio was converted to percent of control (POC). [1-(high control-sample signal)/(high control-low control)]*100. Wells without compound were used to determine high control values and wells without enzyme were used to determine low control values. The POC values were fit using a four-parameter logistic model and the value where the fit curve was equal to 50 POC was reported as the IC50 using the Signals Vitro Vivo software package (PerkinElmer). Final assay conditions were: 50 mM HEPES pH7.5, 10 mM MgCl2, 1 mM EDTA, 0.01% Brij-35, 2 mM MnCl2, 1 mM DTT, and 0.5 uM TK-peptide.

Compound	IC50
Cc1c(-c2cc(Sc3ncccc3F)c3c(C#N)cnn3c2)cnn1C1CCN(CC(=O)N(C)C)CC1 [Example 195, 2-(4-(4-(3-cyano-4-((3-fluoropyridin-2-yl)thio)pyrazolo[1,5-a]pyridin-6-yl)-5-methyl-1H-pyrazol-1-yl)piperidin-1-yl)-N,N-dimethylacetamide]	1.4 nM
Cc1c(-c2cc(Sc3ncccc3F)c3c(C#N)cnn3c2)cnn1C1CCN(C(=O)[C@@H]2C[C@@H](F)CN2C)CC1 [Example 196, 6-(1-(1-((2S,4R)-4-fluoro-1-methylpyrrolidine-2-carbonyl)piperidin-4-yl)-5-methyl-1H-pyrazol-4-yl)-4-((3-fluoropyridin-2-yl)thio)pyrazolo[1,5-a]pyridine-3-carbonitrile]	1 nM
Cc1c(-c2cc(Sc3ncccc3F)c3c(C#N)cnn3c2)cnn1[C@H](C)[C@H](O)CO [Example 197, 6-(1-((2R,3S)-3,4-dihydroxybutan-2-yl)-5-methyl-1H-pyrazol-4-yl)-4-((3-fluoropyridin-2-yl)thio)pyrazolo[1,5-a]pyridine-3-carbonitrile]	3 nM
Cc1c(-c2cc(Sc3ncccc3F)c3c(C#N)cnn3c2)cnn1[C@@H](C)[C@H](O)CO [Example 198, 6-(1-((2S,3S)-3,4-dihydroxybutan-2-yl)-5-methyl-1H-pyrazol-4-yl)-4-((3-fluoropyridin-2-yl)thio)pyrazolo[1,5-a]pyridine-3-carbonitrile]	21 nM
Cc1c(-c2cc(Sc3ccccc3C#N)c3c(C#N)cnn3c2)cnn1C1CC2CCC(C1)N2C (stereo not drawn) [Example 199, 4-((2-cyanophenyl)thio)-6-(5-methyl-1-(8-methyl-8-azabicyclo[3.2.1]octan-3-yl)-1H-pyrazol-4 yl)pyrazolo[1,5-a]pyridine-3-carbonitrile]	1 nM
Cc1c(-c2cc(Sc3ccccc3C#N)c3c(C#N)cnn3c2)cnn1CC1CCNCC1 [Example 200, 4-((2-cyanophenyl)thio)-6-(5-methyl-1-(piperidin-4-ylmethyl)-1H-pyrazol-4-yl)pyrazolo[1,5-a]pyridine-3-carbonitrile]	1 nM
Cc1c(-c2cc(Sc3ccccc3C#N)c3c(C#N)cnn3c2)cnn1C[C@H]1CCCNC1 [Example 201, (S)-4-((2-cyanophenyl)thio)-6-(5-methyl-1-(piperidin-3-ylmethyl)-1H-pyrazol-4-yl)pyrazolo[1,5-a]pyridine-3-carbonitrile]	2 nM
CC(=O)N1CCC[C@H](Cn2ncc(-c3cc(Sc4ccccc4C#N)c4c(C#N)cnn4c3)c2C)C1 [Example 202, (S)-6-(1-((1-acetylpiperidin-3-yl)methyl)-5-methyl-1H-pyrazol-4-yl)-4-((2-cyanophenyl)thio)pyrazolo [1,5-a]pyridine-3-carbonitrile]	2 nM
Cc1c(-c2cc(Sc3ncccc3F)c3c(C#N)cnn3c2)cnn1C1CC2CCC(C1)N2 (stereo not drawn) [Example 203, 4-[(3-fluoro-2-pyridiyl)sulfonyl]-6-[1-[1-(1-prop-2-enoylazetidine-3-carbonyl)-4-piperidyl]pyrazol-4-yl]pyrazolo[1,5-a]pyridine-3-carbonitrile]	2 nM
CC(=O)N1C2CCC1CC(n1ncc(-c3cc(Sc4ncccc4F)c4c(C#N)cnn4c3)c1C)C2 (stereo not drawn) [Example 204, 6-(1-(8-acetyl-8-azabicyclo[3.2.1]octan-3-yl)-5-methyl-1H-pyrazol-4-yl)-4-((3-fluoropyridin-2-yl)thio)pyrazolo[1,5-a]pyridine-3-carbonitrile]	2 nM
CC(=O)N1CCC(Cn2ncc(-c3cc(Sc4ncccc4F)c4c(C#N)cnn4c3)c2C)CC1 [Example 205, 6-(1-((1-acetylpiperidin-4-yl)methyl)-5-methyl-1H-pyrazol-4-yl)-4-((3-fluoropyridin-2-yl)thio)pyrazolo[1,5-a]pyridine-3-carbonitrile]	3 nM
Cc1c(-c2cc(Sc3ncccc3F)c3c(C#N)cnn3c2)cnn1C[C@H]1CCCNC1 [Example 206, (S)-4-((3-fluoropyridin-2-yl)thio)-6-(5-methyl-1-(piperidin-3-ylmethyl)-1H-pyrazol-4-yl)pyrazolo[1,5-a]pyridine-3-carbonitrile]	3 nM
CC(=O)N1CCC[C@H](Cn2ncc(-c3cc(Sc4ncccc4F)c4c(C#N)cnn4c3)c2C)C1 [Example 207, (S)-6-(1-((1-acetylpiperidin-3-yl)methyl)-5-methyl-1H-pyrazol-4-yl)-4-((3-fluoropyridin-2-yl)thio)pyrazolo[1,5-a]pyridine-3-carbonitrile]	5 nM
CN[C@H]1C[C@@H](n2ncc(-c3cc(Sc4ncccc4F)c4c(C#N)cnn4c3)c2C)C1 [Example 208, 4-((3-fluoropyridin-2-yl)thio)-6-(5-methyl-1-((1s,3s)-3-(methylamino)cyclobutyl)-1H-pyrazol-4-yl)pyrazolo[1,5-a]pyridine-3-carbonitrile]	1 nM
Cc1c(-c2cc(Sc3ncccc3F)c3c(C#N)cnn3c2)cnn1C1CC2(CNC2)C1 [Example 209, 4-((3-fluoropyridin-2-yl)thio)-6-(5-methyl-1-(2-azaspiro[3.3]heptan-6-yl)-1H-pyrazol-4-yl)pyrazolo[1,5-a]pyridine-3-carbonitrile]	1 nM
CC(=O)N1CC2(CC(n3ncc(-c4cc(Sc5ncccc5F)c5c(C#N)cnn5c4)c3C)C2)C1 [Example 210, 6-(1-(2-acetyl-2-azaspiro[3.3]heptan-6-yl)-5-methyl-1H-pyrazol-4-yl)-4-((3-fluoropyridin-2-yl)thio)pyrazolo[1,5-a]pyridine-3-carbonitrile]	2 nM
CNC1CC2(C1)CC(n1ncc(-c3cc(Sc4ncccc4F)c4c(C#N)cnn4c3)c1C)C2 (stereo not drawn) [Example 211, 4-((3-fluoropyridin-2-yl)thio)-6-(5-methyl-1-(6-(methylamino)spiro[3.3]hep-tan-2-yl)-1H-pyrazol-4-yl)pyrazolo[1,5-a]pyridine-3-carbonitrile]	1 nM
Cc1c(-c2cc(Sc3ncccc3F)c3c(C#N)cnn3c2)cnn1C[C@H]1CC[C@@H](O)CC1 [Example 212, 4-((3-fluoropyridin-2-yl)thio)-6-(1-(((1s,4s)-4-hydroxycyclohexyl)methyl)-5-methyl-1H-pyrazol-4-yl)pyrazolo[1,5-a]pyridine-3-carbonitrile]	3 nM
Cc1c(-c2cc(Sc3ncccc3F)c3c(C#N)cnn3c2)cnn1C1CCN(C(=O)C(C)(C)N(C)C)CC1 [Example 213, 6-(1-(1-(2-(dimethylamino)-2-methylpropanoyl)piperidin-4-yl)-5-methyl-1H-pyrazol-4-yl)-4-((3-fluoropyridin-2-yl)thio)pyrazolo[1,5-a]pyridine-3-carbonitrile]	1.6 nM
Cc1c(-c2cc(Sc3ncccc3F)c3c(C#N)cnn3c2)cnn1C1CCN(C(=O)[C@@H](C)N(C)C)CC1 [Example 214, 6-(1-(1-(dimethyl-D-alanyl)piperidin-4-yl)-5-methyl-1H-pyrazol-4-yl)-4-((3-fluoropyridin-2-yl)thio)pyrazolo[1,5-a]pyridine-3-carbonitrile]	1.6 nM
Cc1c(-c2cc(Sc3ncccc3F)c3c(C#N)cnn3c2)cnn1C1CCN(C(=O)[C@H](C)N(C)C)CC1 [Example 215, 6-(1-(1-(dimethyl-L-alanyl)piperidin-4-yl)-5-methyl-1H-pyrazol-4-yl)-4-((3-fluoropyridin-2-yl)thio)pyrazolo[1,5-a]pyridine-3-carbonitrile]	1.6 nM
Cc1c(-c2cc(Sc3ncccc3F)c3c(C#N)cnn3c2)cnn1C1CCN(Cc2ncccn2)CC1 [Example 216, 4-((3-fluoropyridin-2-yl)thio)-6-(5-methyl-1-(1-(pyrimidin-2-ylmethyl)piperidin-4-yl)-1H-pyrazol-4-yl)pyrazolo[1,5-a]pyridine-3-carbonitrile]	2 nM
Cc1c(-c2cc(Sc3ncccc3F)c3c(C#N)cnn3c2)cnn1CC1CCN(CC(=O)N(C)C)CC1 [Example 217, 2-(4-((4-(3-cyano-4-((3-fluoropyridin-2-yl)thio)pyrazolo[1,5-a]pyridin-6-yl)-5-methyl-1H-pyrazol-1-yl)methyl)piperidin-1-yl)-N,N-dimethylacetamide]	6 nM
Cc1c(-c2cc(Sc3ncccc3F)c3c(C#N)cnn3c2)cnn1[C@H](C)C1CCNCC1 [Example 218, (R)-4-((3-fluoropyridin-2-yl)thio)-6-(5-methyl-1-(1-(piperidin-4-yl)ethyl)-1H-pyrazol-4-yl)pyrazolo[1,5-a]pyridine-3-carbonitrile]	3 nM
Cc1c(-c2cc(Sc3ncccc3F)c3c(C#N)cnn3c2)cnn1[C@H]1CC[C@]2(CCNC2)CC1 [Example 219, 4-((3-fluoropyridin-2-yl)thio)-6-(5-methyl-1-((5s,8s)-2-azaspiro[3.4]decan-8-yl)-1H-pyrazol-4-yl)pyrazolo[1,5-a]pyridine-3-carbonitrile]	0.5 nM
CC(=O)N[C@H]1CC[C@@H](n2ncc(-c3cc(Sc4ncccc4F)c4c(C#N)cnn4c3)c2C)CC1 [Example 220, N-((1s,4S)-4-(4-(3-cyano-4-((3-fluoropyridin-2-yl)thio)pyrazolo[1,5-a]pyridin-6-yl)-5-methyl-1H-pyrazol-1-yl)cyclohexyl)acetamide]	5 nM
CC(=O)N1CCC(Cn2ncc(-c3cc(Sc4ccccc4C#N)c4c(C#N)cnn4c3)c2C)CC1 [Example 221, 6-(1-((1-acetylpiperidin-4-yl)methyl)-5-methyl-1H-pyrazol-4-yl)-4-((2-cyanophenyl)thio)pyrazolo [1,5-a]pyridin-3-carbonitrile]	1 nM
Cc1c(-c2cc(Sc3ncccc3F)c3c(C#N)cnn3c2)cnn1CC1CCNCC1 [Example 222, 4-((3-fluoropyridin-2-yl)thio)-6-(5-methyl-1-(piperidin-4-ylmethyl)-1H-pyrazol-4-yl)pyrazolo[1,5-a]pyridine-3-carbonitrile]	5 nM
Cc1c(-c2cc(Sc3ncccc3F)c3c(C#N)cnn3c2)cnn1[C@@H]1CCNC[C@H]1F [Example 223]	8 nM
CC(=O)N1CCC[C@@H](Cn2ncc(-c3cc(Sc4ccccc4C#N)c4c(C#N)cnn4c3)c2C)C1 [Example 224, (R)-6-(1-((1-acetylpiperidin-3-yl)methyl)-5-methyl-1H-pyrazol-4-yl)-4-((2-cyanophenyl)thio)pyrazolo [1,5-a]pyridine-3-carbonitrile]	8 nM
